Test: Solubility of Silicon-Containing Compound E in aqueous CD solutions (clarity and stability, visual)
Assay type: physicochemical
Design: key to Solubility of Compound E: Stability: OK: When the aqueous solutions of the CD and the Silicon-Containing Compound E did not exhibit the conditions such as presence of precipitates and deposits, the solutions were considered as stable; NG: When the aqueous solutions of the CD and the Silicon-Containing Compound E exhibited the conditions such as presence of precipitates and deposits, the solutions were not considered as stable; key to Solubility of Compound E: Clarity: When the aqueous solutions of the CD and the Silicon-Containing Compound E were clear, the solutions were rated as “OK”; When the aqueous solutions of the CD and the Silicon-Containing Compound E were not clear, the solutions were rated as “NG”
Settings: purified water
Protocol: To determine “Solubility of Compound E” in the tables, the Silicon-Containing Compound E as another solute was added at respective ratios shown in the respective tables (see “Ratio of Compound E” in the tables) to the respective aqueous CD solutions after evaluation of the solubility of CD, and then the mixture was stirred on a shaker to prepare the respective aqueous solutions of the CD and the Silicon-Containing Compound E. Immediately after preparation of the aqueous solutions of the CD and the Silicon-Containing Compound E, the clarity of the aqueous solutions was visually evaluated. When the aqueous solutions of the CD and the Silicon-Containing Compound E were clear, the solutions were rated as “OK”. When the aqueous solutions of the CD and the Silicon-Containing Compound E were not clear, the solutions were rated as “NG”. “Stability” in “Solubility of Compound E” in the tables was determined by allowing the respective aqueous solutions of the CD and the Silicon-Containing Compound E after preparation to stand at ambient temperature for a predetermined period and then visually evaluating the conditions (such as presence of precipitates and deposits) of the solutions.

[1] = β-CD 1 w/w %, Compound E 0.3 w/w %
[2] = β-CD 1 w/w %, Compound E 0.4 w/w %
[3] = β-CD 1 w/w %, Compound E 0.5 w/w %
[4] = β-CD 1 w/w %, Compound E 0.6 w/w %
[5] = β-CD 1 w/w %, Compound E 0.7 w/w %
[6] = β-CD 1 w/w %, Compound E 0.8 w/w %
[7] = β-CD 1 w/w %, Compound E 0.9 w/w %
[8] = β-CD 1 w/w %, Compound E 1 w/w %
[9] = γ-CD 1 w/w %, Compound E 0.1 w/w %
[10] = γ-CD 1 w/w %, Compound E 0.2 w/w %
[11] = γ-CD 1 w/w %, Compound E 0.3 w/w %
[12] = γ-CD 1 w/w %, Compound E 0.4 w/w %
[13] = γ-CD 1 w/w %, Compound E 0.5 w/w %
[14] = γ-CD 1 w/w %, Compound E 0.6 w/w %
[15] = γ-CD 1 w/w %, Compound E 0.7 w/w %
[16] = γ-CD 1 w/w %, Compound E 0.8 w/w %
[17] = γ-CD 1 w/w %, Compound E 0.9 w/w %
[18] = γ-CD 1 w/w %, Compound E 1 w/w %
[19] = γ-CD 3 w/w %, Compound E 0.1 w/w %
[20] = γ-CD 3 w/w %, Compound E 0.2 w/w %
[21] = γ-CD 3 w/w %, Compound E 0.3 w/w %
[22] = γ-CD 3 w/w %, Compound E 0.4 w/w %
[23] = γ-CD 3 w/w %, Compound E 0.5 w/w %
[24] = γ-CD 3 w/w %, Compound E 0.6 w/w %
[25] = γ-CD 3 w/w %, Compound E 0.7 w/w %
[26] = γ-CD 3 w/w %, Compound E 0.8 w/w %
[27] = γ-CD 3 w/w %, Compound E 0.9 w/w %
[28] = γ-CD 3 w/w %, Compound E 1 w/w %
[29] = γ-CD 6 w/w %, Compound E 0.1 w/w %
[30] = γ-CD 6 w/w %, Compound E 0.2 w/w %
[31] = γ-CD 6 w/w %, Compound E 0.3 w/w %
[32] = γ-CD 6 w/w %, Compound E 0.4 w/w %
[33] = γ-CD 6 w/w %, Compound E 0.5 w/w %
[34] = γ-CD 6 w/w %, Compound E 0.6 w/w %
[35] = γ-CD 6 w/w %, Compound E 0.7 w/w %
[36] = γ-CD 6 w/w %, Compound E 0.8 w/w %
[37] = γ-CD 6 w/w %, Compound E 0.9 w/w %
[38] = γ-CD 6 w/w %, Compound E 1 w/w %
[39] = γ-CD 10 w/w %, Compound E 0.1 w/w %
[40] = γ-CD 10 w/w %, Compound E 0.2 w/w %
[41] = γ-CD 10 w/w %, Compound E 0.3 w/w %
[42] = γ-CD 10 w/w %, Compound E 0.4 w/w %
[43] = γ-CD 10 w/w %, Compound E 0.5 w/w %
[44] = γ-CD 10 w/w %, Compound E 0.6 w/w %
[45] = γ-CD 10 w/w %, Compound E 0.7 w/w %
[46] = γ-CD 10 w/w %, Compound E 0.8 w/w %
[47] = γ-CD 10 w/w %, Compound E 0.9 w/w %
[48] = γ-CD 10 w/w %, Compound E 1 w/w %

CCCCCCCCCCCCCCCCCC[N+](C)(C)CCC[Si](OCC)(OCC)OCC.[Cl-] [Compound E, Octadecyl dimethyl(3-triethoxysilylpropyl)ammonium chloride]
NG: Solubility of Compound E: Clarity [1] | Solubility of Compound E: Clarity [2] | Solubility of Compound E: Clarity [3] | Solubility of Compound E: Clarity [4] | Solubility of Compound E: Clarity [5] | Solubility of Compound E: Clarity [6] | Solubility of Compound E: Clarity [7] | Solubility of Compound E: Clarity [8] | Solubility of Compound E: Clarity [13] | Solubility of Compound E: Clarity [14] | Solubility of Compound E: Clarity [15] | Solubility of Compound E: Clarity [16] | Solubility of Compound E: Clarity [17] | Solubility of Compound E: Clarity [18] | Solubility of Compound E: Clarity [19] | Solubility of Compound E: Clarity [20] | Solubility of Compound E: Clarity [21] | Solubility of Compound E: Clarity [22] | Solubility of Compound E: Clarity [23] | Solubility of Compound E: Clarity [24] | Solubility of Compound E: Clarity [25] | Solubility of Compound E: Clarity [26] | Solubility of Compound E: Clarity [27] | Solubility of Compound E: Clarity [28] | Solubility of Compound E: Clarity [29] | Solubility of Compound E: Clarity [30] | Solubility of Compound E: Clarity [31] | Solubility of Compound E: Clarity [32] | Solubility of Compound E: Clarity [33] | Solubility of Compound E: Clarity [34] | Solubility of Compound E: Clarity [35] | Solubility of Compound E: Clarity [36] | Solubility of Compound E: Clarity [37] | Solubility of Compound E: Clarity [38] | Solubility of Compound E: Clarity [39] | Solubility of Compound E: Stability [39] | Solubility of Compound E: Clarity [40] | Solubility of Compound E: Stability [40] | Solubility of Compound E: Clarity [41] | Solubility of Compound E: Stability [41] | Solubility of Compound E: Clarity [42] | Solubility of Compound E: Stability [42] | Solubility of Compound E: Clarity [43] | Solubility of Compound E: Stability [43] | Solubility of Compound E: Clarity [44] | Solubility of Compound E: Stability [44] | Solubility of Compound E: Clarity [45] | Solubility of Compound E: Stability [45] | Solubility of Compound E: Clarity [46] | Solubility of Compound E: Stability [46] | Solubility of Compound E: Clarity [47] | Solubility of Compound E: Stability [47] | Solubility of Compound E: Clarity [48] | Solubility of Compound E: Stability [48]
OK: Solubility of Compound E: Stability (β-CD 1 w/w %, Compound E 0.2 w/w %) | Solubility of Compound E: Stability [1] | Solubility of Compound E: Stability [2] | Solubility of Compound E: Stability [3] | Solubility of Compound E: Stability [4] | Solubility of Compound E: Stability [5] | Solubility of Compound E: Stability [6] | Solubility of Compound E: Stability [7] | Solubility of Compound E: Stability [8] | Solubility of Compound E: Clarity [9] | Solubility of Compound E: Stability [9] | Solubility of Compound E: Clarity [10] | Solubility of Compound E: Stability [10] | Solubility of Compound E: Clarity [11] | Solubility of Compound E: Stability [11] | Solubility of Compound E: Clarity [12] | Solubility of Compound E: Stability [12] | Solubility of Compound E: Stability [13] | Solubility of Compound E: Stability [14] | Solubility of Compound E: Stability [15] | Solubility of Compound E: Stability [16] | Solubility of Compound E: Stability [17] | Solubility of Compound E: Stability [18] | Solubility of Compound E: Stability [19] | Solubility of Compound E: Stability [20] | Solubility of Compound E: Stability [21] | Solubility of Compound E: Stability [22] | Solubility of Compound E: Stability [23] | Solubility of Compound E: Stability [24] | Solubility of Compound E: Stability [25] | Solubility of Compound E: Stability [26] | Solubility of Compound E: Stability [27] | Solubility of Compound E: Stability [28] | Solubility of Compound E: Stability [29] | Solubility of Compound E: Stability [30] | Solubility of Compound E: Stability [31] | Solubility of Compound E: Stability [32] | Solubility of Compound E: Stability [33] | Solubility of Compound E: Stability [34] | Solubility of Compound E: Stability [35] | Solubility of Compound E: Stability [36] | Solubility of Compound E: Stability [37] | Solubility of Compound E: Stability [38]
